Measured values reported in patent US20260216335A1, “COMPOSITIONS AND METHODS FOR TARGETING AND TREATING TUMOR” (JIANGSU CODE BIOMEDICAL TECHNOLOGY CO., LTD., priority 2023, published 2026).

How the values were obtained:
Type in all cases: physicochemical
[1] = Photothermal heating under 808 nm NIR laser, 1.0 W/cm^2 for 10 min; conditions: 1.0 W/cm^2, 10 min, 1 mL aqueous, 12 μg/mL ICG or 11.6 μg/mL Fe
Method: To synthesize an effectiveness photothermal agents, we explore the synergistic effect of ICG and OA-Fe3O4. Various photothermal agents were exposed to 808 nm NIR laser irradiation with a power density of 1.0 W/cm^2 for 10 min. Aqueous suspensions of ICG/OA-Fe3O4@NPs, mixture of free ICG and OA-Fe3O4 (1 mL solution with 12 μg/mL ICG or 11.6 μg/mL Fe) reach the maximum temperatures of 45.9° C., 46.6° C.

[2] = Photothermal stability, laser ON 3 min / OFF 7 min cycles; conditions: NIR laser 3 min ON, 7 min OFF
Method: DdH2O, blank nanoparticles, 0.012 mg/mL free ICG, nanoparticles containing ICG and Fe3O4 (concentration of ICG is 0.012 mg/mL) and nanoparticles containing ICG and oleic acid modified Fe3O4 were continuously irradiated at 1.5 W/cm2 by 808 nm laser emitter. […] Then, PLGA nanoparticles coated with oleic acid modified Fe3O4 and free oleic acid modified Fe3O4 were irradiated continuously.
ICG@NPs, free ICG, ICG/OA-Fe3O4@NPs, free ICG/OA-Fe3O4 were irradiated with the NIR laser for 3 min (Laser ON), followed by natural cooling for 7 min (Laser OFF).
Furthermore, to investigate the photothermal conversion stability of ICG/OA-Fe3O4@PLGA for practical applications, solutions of ICG/OA-Fe3O4@PLGA, ICG/Fe3O4@PLGA, ICG@PLGA, Blank-NPs and free ICG were irradiated with the NIR laser for 3 min (Laser ON), followed by natural cooling for 7 min (Laser OFF).

[3] = Photothermal conversion under continuous 808 nm laser irradiation, 1.5 W/cm^2; conditions: 808 nm NIR laser
Method: DdH2O, blank nanoparticles, 0.012 mg/mL free ICG, nanoparticles containing ICG and Fe3O4 (concentration of ICG is 0.012 mg/mL) and nanoparticles containing ICG and oleic acid modified Fe3O4 were continuously irradiated at 1.5 W/cm2 by 808 nm laser emitter. […] Then, PLGA nanoparticles coated with oleic acid modified Fe3O4 and free oleic acid modified Fe3O4 were irradiated continuously. […] But the heat production capacity is low. Then, we used intermittent irradiation method, every 3 minutes to raise the temperature to the highest point, and stopped the irradiation for 7 minutes to bring the temperature back to room temperature until the temperature no longer increased.
To evaluate its photothermal conversion performance, ICG/OA-Fe3O4@PLGA solutions were irradiated with an 808 nm NIR laser (1.5 W/cm^2, FIGS. 3A-3C). […] No significant temperature changes were found in Blank-NP solution and DI water. Only negligible temperature increase of Blank-NP solution and DI water were found.

- maximum temperature [1]: 41.8 °C
- maxim temperature, laser ON/OFF cycle 1 ([2]; 1st of six cycles): 40.9 °C
- maxim temperature, laser ON/OFF cycle 2 ([2]; 2nd of six cycles): 37.1 °C
- maxim temperature, laser ON/OFF cycle 3 ([2]; 3rd of six cycles): 33.8 °C
- maxim temperature, laser ON/OFF cycle 4 ([2]; 4th of six cycles): 32.8 °C
- maxim temperature, laser ON/OFF cycle 5 ([2]; 5th of six cycles): 30.7 °C
- maxim temperature, laser ON/OFF cycle 6 ([2]; 6th of six cycles): 30.1 °C
- time high temperature was maintained [3]: only a few minutes
- temperature reached by the solution ([3]; 500 μg mL-1): 47.3 °C
SMILES: CC1(C)C(/C=C/C=C/C=C/C=C2\N(CCCCS(=O)(=O)O)c3ccc4ccccc4c3C2(C)C)=[N+](CCCCS(=O)(=O)[O-])c2ccc3ccccc3c21 [free ICG, Indocyanine green]
